# Data reported in US7595320B2, “Hydrazinocarbonyl-thieno[2,3-C]pyrazoles, process for preparing them, compositions containing them and use thereof” (Aventis Pharma S.A., priority 2005, dated 2009).
# Where a name gives a salt, the structure may show the parent alone.
# Assays:
# Aurora1 = biological target: T1, Aurora1 (Homo sapiens, UniProt Q96GD4); assay: Aurora1 enzymatic test, NuMA phosphorylation with [33P]ATP, Flashplate; type: biochemical; settings: Aurora-B/INCENP-C3 recombinant complex, 1 μM ATP
# T1 construct: His tag (N); made in house
# Summary of the method: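 Recombinant His-tagged Aurora-B/INCENP-C3 complex (10 nM) phosphorylates 500 nM His-NuMA fragment with 1 µM ATP plus [33P]ATP, 30 minutes at 37° C in Tris pH 7.5 with 5 mM MgCl2, on nickel-chelate Flashplates. Incorporated 33P counted; percent inhibition versus enzyme control after no-enzyme background subtraction.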
# Aurora2 = biological target: T2, Aurora2 (Homo sapiens, UniProt O14965); assay: Aurora2 enzymatic test, NuMA phosphorylation with [33P]ATP, Flashplate; type: biochemical; settings: whole recombinant protein, 1 μM ATP
# T2 construct: Aurora2: whole recombinant protein comprising an N-terminal histidine tail; His tag (N); made in house; host or cells: E. coli
# T2 sequence (O14965 1-403): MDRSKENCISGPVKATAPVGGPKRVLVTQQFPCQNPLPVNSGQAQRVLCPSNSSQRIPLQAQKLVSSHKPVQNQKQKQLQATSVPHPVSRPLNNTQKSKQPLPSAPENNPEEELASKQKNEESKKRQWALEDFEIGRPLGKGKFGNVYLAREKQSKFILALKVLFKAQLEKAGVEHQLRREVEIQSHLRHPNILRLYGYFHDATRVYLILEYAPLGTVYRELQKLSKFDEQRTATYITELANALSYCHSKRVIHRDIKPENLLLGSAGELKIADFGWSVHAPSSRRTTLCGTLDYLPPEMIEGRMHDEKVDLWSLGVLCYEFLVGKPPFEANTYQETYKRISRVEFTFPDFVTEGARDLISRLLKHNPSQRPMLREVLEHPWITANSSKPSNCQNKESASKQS
# Summary of the method: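 Full-length His-tagged Aurora2 (E. coli, >82% pure) at 10 nM phosphorylated 500 nM His-NuMA fragment on Ni-chelate Flashplates. Conditions were pH 7.5 Tris buffer with 10 mM MgCl2, 1 μM ATP plus [33P]ATP, 30 min at 37 °C.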
# CDK2/cycline E = biological target: T3, CDK2/cycline E (Homo sapiens, UniProt P24941); assay: CDK2/cyclineE Flashplate test in 96-well format; type: biochemical; settings: CDK2/cycline E complex, 1 μM ATP
# T3 construct: made in house; host or cells: Sf21 insect cells (baculovirus coinfection)
# Summary of the method: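 Recombinant human CDK2/cyclin E (His-tagged cyclin E, coexpressed in Sf21 cells), 20 nM, phosphorylates biotinylated pRb peptide (10 μM) with 1 μM ATP plus [γ-33P]ATP in HEPES pH 7.5, MgCl2, DTT at 30 °C. Inhibitors tested at 10 μM down to 0.014 μM; 33P incorporation read by scintillation on streptavidin plates.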
# Tie2 = biological target: T4, Tie2 (Homo sapiens, UniProt Q02763); assay: Tie2 kinase test, phosphorylation of PLC with GST-Tie2; type: biochemical; settings: GST-Tie2 intracellular domain 776-1124
# T4 construct: amino acids of the intracellular domain 776-1124; made in house; host or cells: baculovirus expression (pFastBacGT vector)
# T4 sequence (Q02763 776-1124): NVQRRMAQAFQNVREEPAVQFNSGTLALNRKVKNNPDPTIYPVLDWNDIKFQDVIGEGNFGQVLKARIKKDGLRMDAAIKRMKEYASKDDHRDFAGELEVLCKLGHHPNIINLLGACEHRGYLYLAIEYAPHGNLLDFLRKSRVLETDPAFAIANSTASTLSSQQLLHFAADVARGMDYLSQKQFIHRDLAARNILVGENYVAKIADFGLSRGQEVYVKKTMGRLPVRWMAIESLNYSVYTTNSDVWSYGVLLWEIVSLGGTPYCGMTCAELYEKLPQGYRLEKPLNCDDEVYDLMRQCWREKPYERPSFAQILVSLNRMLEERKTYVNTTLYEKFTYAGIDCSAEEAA
# T1 sequence (Q96GD4 whole entry, species assumed): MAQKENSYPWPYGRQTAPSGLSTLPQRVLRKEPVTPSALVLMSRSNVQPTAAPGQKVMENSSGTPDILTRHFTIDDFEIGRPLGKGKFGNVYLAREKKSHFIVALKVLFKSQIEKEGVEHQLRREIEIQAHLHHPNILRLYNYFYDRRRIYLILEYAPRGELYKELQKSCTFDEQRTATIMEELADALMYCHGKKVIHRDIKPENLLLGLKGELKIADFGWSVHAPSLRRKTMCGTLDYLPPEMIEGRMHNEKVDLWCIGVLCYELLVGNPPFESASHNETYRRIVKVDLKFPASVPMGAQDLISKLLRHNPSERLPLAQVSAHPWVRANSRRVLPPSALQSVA
# T1 sequence (Q9NQS7 835-903 partner limits assumed, species assumed): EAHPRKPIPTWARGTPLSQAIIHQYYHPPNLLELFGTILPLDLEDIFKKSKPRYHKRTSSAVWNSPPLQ
Compound,IC50 (Aurora1),IC50 (Aurora2),IC50 (CDK2/cycline E),IC50 (Tie2),melting point
"CN(Cc1ccc(C(=O)Nc2n[nH]c3sc(C(=O)NN(C)c4ccccc4)cc23)cc1)c1ccccc1 [Example 24, 4-[(methylphenylamino)methyl]-N-[5-(N′-methyl-N′-phenylhydrazinocarbonyl)-1H-thieno[2,3-c]pyrazol-3-yl]benzamide]",0.288 µM,0.049 µM,1.49 µM,1.03 µM,242 °C
"CN(NC(=O)c1cc2c(NC(=O)c3ccc(Br)cc3)n[nH]c2s1)c1ccccc1 [Example 9, 4-bromo-N-[5-(N′-methyl-N′-phenylhydrazinocarbonyl)-1H-thieno[2,3-c]pyrazol-3-yl]benzamide]",0.131 µM,0.157 µM,0.065 µM,0.82 µM,172 °C
"CN(NC(=O)c1cc2c(NC(=O)c3ccc(CN4CCOCC4)cc3)n[nH]c2s1)c1ccccc1 [Example 8, N-[5-(N′-methyl-N′-phenylhydrazinocarbonyl)-1H-thieno[2,3-c]pyrazol-3-yl]-4-morpholin-4-ylmethylbenzamide]",0.029 µM,0.008 µM,0.134 µM,0.252 µM,242 °C
"CN(NC(=O)c1cc2c(NC(=O)c3ccc(CN4CCC4)cc3)n[nH]c2s1)c1ccccc1 [Example 19, 4-azetidin-1-ylmethyl-N-[5-(N′-methyl-N′-phenylhydrazinocarbonyl)-1H-thieno[2,3-c]pyrazol-3-yl]benzamide]",0.304 µM,0.026 µM,0.239 µM,0.888 µM,–

# Continued, values first:
IC50 (Aurora1),IC50 (Aurora2),IC50 (CDK2/cycline E),IC50 (Tie2),melting point,Compound
–,–,–,–,162 °C,"CN1CCCN(Cc2ccc(C(=O)Nc3n[nH]c4sc(C(=O)NN(C)c5ccc(Cl)cc5)cc34)cc2)CC1 (as salt: salt) [Example 12b, 4-(4-methylperhydro-1,4-diazepin-1-ylmethyl)-N-[5-(N′-(4-chlorophenyl)-N′-methylhydrazinocarbonyl)-1H-thieno[2,3-c]pyrazol-3-yl]benzamide]"
0.147 µM,0.081 µM,0.717 µM,2.21 µM,–,"CN(NC(=O)c1cc2c(NC(=O)c3cccc(CN4CCOCC4)c3)n[nH]c2s1)c1ccccc1 [Example 22a, N-[5-(N′-methyl-N′-phenylhydrazinocarbonyl)-1H-thieno[2,3-c]pyrazol-3-yl]-3-morpholin-4-ylmethylbenzamide]"
